Reference: US8581584B2, “Membrane proteins, mechanisms of action and uses thereof” (priority 2010, dated 2013)

Biological target: transmembrane domain of M2 protein (Influenza A virus, UniProt P0DOF5)
Assay: solid state NMR spectra of uniformly aligned M2 samples with and without drug
Conditions: five isoleucines 15N labeled; FIG. 31
Description: Uniformly aligned samples of membrane proteins meant that each molecule in the sample will have the same orientation with respect to the magnetic field axis of the NMR spectrometer. In this way the orientation dependent spin interactions such as anisotropic chemical shifts, dipolar and quadrupolar interactions can be observed. The orientations of the individual atomic sites in the protein reflect the orientation of that particular site with respect to the magnetic field.

Sequence of transmembrane domain of M2 protein (P0DOF5 26-46): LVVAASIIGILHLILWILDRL

NC12CC3CC(CC(C3)C1)C2 [amantadine]
change of 15N-Ile resonances in response to drug binding: two of the resonances shift (arrows) dramatically in response to drug binding
